Assay results taken from BindingDB's records for doi:10.1111/j.1747-0285.2009.00909.x (Queen's University, 2010).
“And” between values parts separate entries of the source, which are not always exact repeats. Equal entries are not always repeated.

Assays:
Heme oxygenase 1 = target: T1, Heme oxygenase 1 (Rattus norvegicus, UniProt P06762); experiment: Heme Oxygenase; conditions: pH 7.4; 25 °C
T1 sequence (P06762 whole entry): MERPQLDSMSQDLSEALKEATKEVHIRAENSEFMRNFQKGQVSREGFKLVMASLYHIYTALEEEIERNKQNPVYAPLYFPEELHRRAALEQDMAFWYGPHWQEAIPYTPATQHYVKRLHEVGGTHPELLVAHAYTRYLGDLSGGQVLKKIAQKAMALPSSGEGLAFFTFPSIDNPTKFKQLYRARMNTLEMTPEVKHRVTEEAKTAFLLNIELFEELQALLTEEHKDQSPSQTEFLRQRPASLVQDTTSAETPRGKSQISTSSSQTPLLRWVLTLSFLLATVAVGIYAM
Protocol: (§1) Heme oxygenase activity in rat spleen and brain microsomal fractions was determined by the quantitation of CO formed from the degradation of methemalbumin (heme complexed with albumin). Spleen and brain (SpragueâDawley rats) microsomal fractions were prepared according to the procedure outlined by Appletonet al. Protein concentration of microsomal fractions was determined by a modification of the Biuret method. Incubations for HO activity analysis were performed under conditions for which the rate of CO formation [pmol CO â (min mg protein)] was linear with respect to time and microsomal protein concentration. […] […]

Heme oxygenase 2 = target: T2, Heme oxygenase 2 (Rattus norvegicus, UniProt P23711); experiment: Heme Oxygenase; conditions: pH 7.4; 25 °C
T2 sequence (P23711 whole entry): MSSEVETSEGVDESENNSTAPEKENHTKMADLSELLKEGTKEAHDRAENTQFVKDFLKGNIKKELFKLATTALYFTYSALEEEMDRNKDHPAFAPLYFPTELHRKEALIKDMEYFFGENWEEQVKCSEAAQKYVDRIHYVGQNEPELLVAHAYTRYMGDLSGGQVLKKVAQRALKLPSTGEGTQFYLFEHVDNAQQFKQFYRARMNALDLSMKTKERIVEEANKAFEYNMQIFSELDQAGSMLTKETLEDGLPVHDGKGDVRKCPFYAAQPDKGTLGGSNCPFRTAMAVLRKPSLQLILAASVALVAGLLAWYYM
Protocol: as §1

SMILES | IC50 (Heme oxygenase 1) [µM] | IC50 (Heme oxygenase 2)
OC(CCc1ccccc1)Cn1ccnc1 (stereo not drawn) | 6 | –
O=C(CCc1ccccc1)Cn1cccn1 [1-azolyl-4-phenyl-2-butanone, 5] | > 100 | > 100 µM
O=C(CCc1ccccc1)Cn1ccnn1 [1-azolyl-4-phenyl-2-butanone, 8] | 89 | > 100 µM
O=C(CCc1ccccc1)Cn1nccn1 [1-azolyl-4-phenyl-2-butanone, 9] | > 100 | > 100 µM
O=C(CCc1ccccc1)Cn1ncnn1 [1-azolyl-4-phenyl-2-butanone, 11] | – | 30 µM and > 100 µM
O=C(CCc1ccccc1)Cn1nc2ccccc2n1 [1-azolyl-4-phenyl-2-butanone, 14] | > 100 | > 100 µM
Cc1nccn1CC(=O)CCc1ccccc1 [1-azolyl-4-phenyl-2-butanone, 15] | > 100 | > 100 µM
O=C(CCc1ccccc1)Cn1ccnc1-c1ccccc1 [1-azolyl-4-phenyl-2-butanone, 16] | > 100 | > 100 µM
COOSc1ncnn1CC(=O)CCc1ccccc1 [1-azolyl-4-phenyl-2-butanone, 46] | > 100 | > 100 µM

More lines, now with the values ahead:

IC50 (Heme oxygenase 1) [µM] | IC50 (Heme oxygenase 2) | SMILES
> 100 | > 100 µM | O=C(CCc1ccccc1)Cn1cnc(Cl)c1Cl [1-azolyl-4-phenyl-2-butanone, 20]
– | > 100 µM | O=C(CCc1ccccc1)Cn1cnc(-c2ccccc2)c1-c1ccccc1 [1-azolyl-4-phenyl-2-butanone, 21]
– | > 100 µM | O=C(CCc1ccccc1)Cn1cnc(-c2ccccc2)c1 [1-azolyl-4-phenyl-2-butanone, 24]
> 100 | > 100 µM | O=C(CCc1ccccc1)Cn1cnc(Br)c1 [1-azolyl-4-phenyl-2-butanone, 25]
> 100 | > 100 µM | O=C(CCc1ccccc1)Cn1cnc(N(O)O)c1 [1-azolyl-4-phenyl-2-butanone, 26]
> 100 | > 100 µM | CSc1ncn(CC(=O)CCc2ccccc2)n1 [1-azolyl-4-phenyl-2-butanone, 31]
> 100 | > 100 µM | O=C(CCc1ccccc1)Cn1cnc(N(O)O)n1 [1-azolyl-4-phenyl-2-butanone, 32]
> 100 | > 100 µM | CSc1ncnn1CC(=O)CCc1ccccc1 [1-azolyl-4-phenyl-2-butanone, 35]
> 100 | > 100 µM | O=C(CCc1ccccc1)Cn1nc(Br)nc1Br [1-azolyl-4-phenyl-2-butanone, 36]
> 100 | > 100 µM | CSc1nnnn1CC(=O)CCc1ccccc1 [1-azolyl-4-phenyl-2-butanone, 38]
> 100 | > 100 µM | O=C(CCc1ccccc1)Cn1nnnc1-c1ccccc1 [1-azolyl-4-phenyl-2-butanone, 40]
> 100 | > 100 µM | CSc1nnn(CC(=O)CCc2ccccc2)n1 [1-azolyl-4-phenyl-2-butanone, 41]
